{"source": "ChEMBL document CHEMBL1149727", "about": "“Sesquiterpenes from clove (Eugenia caryophyllata) as potential anticarcinogenic agents” (1992)", "key": {"Mus musculus [1]": {"test_system": "Mus musculus", "assay": "Induction of cytosolic Glutathione S-transferase activity per mg of protein in A/J mouse liver at 20 mg, po for once every 2 days for total three doses measured after 24 hrs of last dose", "format": "functional"}, "Mus musculus [2]": {"test_system": "Mus musculus", "assay": "Induction of cytosolic Glutathione S-transferase activity per mg of protein in A/J mouse small bowel mucosa at 20 mg, po for once every 2 days for total three doses measured after 24 hrs of last dose", "format": "functional"}, "Mus musculus [3]": {"test_system": "Mus musculus", "assay": "Induction of cytosolic Glutathione S-transferase activity per mg of protein in A/J mouse forestomach at 20 mg, po for once every 2 days for total three doses measured after 24 hrs of last dose", "format": "functional, Stomach"}, "Mus musculus [4]": {"test_system": "Mus musculus", "assay": "Ratio of drug to control in induction of cytosolic Glutathione S-transferase activity per mg of protein in A/J mouse liver at 20 mg, po for once every 2 days for total three doses measured after 24 hrs of last dose", "format": "functional"}, "Mus musculus [5]": {"test_system": "Mus musculus", "assay": "Ratio of drug to control in induction of cytosolic Glutathione S-transferase activity per mg of protein in A/J mouse small bowel mucosa at 20 mg, po for once every 2 days for total three doses measured after 24 hrs of last dose", "format": "functional"}, "Mus musculus [6]": {"test_system": "Mus musculus", "assay": "Ratio of drug to control in induction of cytosolic Glutathione S-transferase activity per mg of protein in A/J mouse forestomach at 20 mg, po for once every 2 days for total three doses measured after 24 hrs of last dose", "format": "functional, Stomach"}}, "data": [{"molecule": "C=C1CC[C@@H]2O[C@]2(C)CC[C@@H]2[C@@H]1CC2(C)C", "values": [{"measurement": "Activity", "setting": "Mus musculus [1]", "value": 2.13, "unit": "µmol/min"}, {"measurement": "Activity", "setting": "Mus musculus [2]", "value": 1.2, "unit": "µmol/min"}, {"measurement": "Activity", "setting": "Mus musculus [3]", "value": 0.59, "unit": "µmol/min"}, {"measurement": "Ratio", "setting": "Mus musculus [4]", "value": 2.88}, {"measurement": "Ratio", "setting": "Mus musculus [5]", "value": 4.8}, {"measurement": "Ratio", "setting": "Mus musculus [6]", "value": 0.95}]}, {"molecule": "C/C1=C\\CC[C@@]2(C)O[C@@H]2CC(C)(C)/C=C/C1", "values": [{"measurement": "Activity", "setting": "Mus musculus [1]", "value": 1.54, "unit": "µmol/min"}, {"measurement": "Activity", "setting": "Mus musculus [2]", "value": 0.81, "unit": "µmol/min"}, {"measurement": "Activity", "setting": "Mus musculus [3]", "value": 0.77, "unit": "µmol/min"}, {"measurement": "Ratio", "setting": "Mus musculus [4]", "value": 2.08}, {"measurement": "Ratio", "setting": "Mus musculus [5]", "value": 3.24}, {"measurement": "Ratio", "setting": "Mus musculus [6]", "value": 1.24}]}, {"molecule": "C/C1=C\\CC/C(C)=C/CC(C)(C)/C=C/C1", "note": "[ALPHA-HUMULONE]", "values": [{"measurement": "Activity", "setting": "Mus musculus [1]", "value": 1.47, "unit": "µmol/min"}, {"measurement": "Activity", "setting": "Mus musculus [2]", "value": 0.63, "unit": "µmol/min"}, {"measurement": "Activity", "setting": "Mus musculus [3]", "value": 0.63, "unit": "µmol/min"}, {"measurement": "Ratio", "setting": "Mus musculus [4]", "value": 1.99}, {"measurement": "Ratio", "setting": "Mus musculus [5]", "value": 2.52}, {"measurement": "Ratio", "setting": "Mus musculus [6]", "value": 1.02}]}, {"molecule": "C=C1CC/C=C(\\C)CC[C@@H]2[C@@H]1CC2(C)C", "note": "[BETA-CARYOPHYLLENE]", "values": [{"measurement": "Activity", "setting": "Mus musculus [1]", "value": 1.92, "unit": "µmol/min"}, {"measurement": "Activity", "setting": "Mus musculus [2]", "value": 0.75, "unit": "µmol/min"}, {"measurement": "Activity", "setting": "Mus musculus [3]", "value": 0.77, "unit": "µmol/min"}, {"measurement": "Ratio", "setting": "Mus musculus [4]", "value": 2.59}, {"measurement": "Ratio", "setting": "Mus musculus [5]", "value": 3}, {"measurement": "Ratio", "setting": "Mus musculus [6]", "value": 1.24}]}, {"molecule": "C=CCc1ccc(O)c(OC)c1", "note": "[EUGENOL]", "values": [{"measurement": "Activity", "setting": "Mus musculus [1]", "value": 0.93, "unit": "µmol/min"}, {"measurement": "Activity", "setting": "Mus musculus [2]", "value": 0.59, "unit": "µmol/min"}, {"measurement": "Activity", "setting": "Mus musculus [3]", "value": 0.75, "unit": "µmol/min"}, {"measurement": "Ratio", "setting": "Mus musculus [4]", "value": 1.26}, {"measurement": "Ratio", "setting": "Mus musculus [5]", "value": 2.36}, {"measurement": "Ratio", "setting": "Mus musculus [6]", "value": 1.21}]}]}
